From PubChem BioAssay (NCI) come the findings set out here.

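Assay format: 96-well plates, 48-hour exposure. The concentration for full growth arrest is given as TGI.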 Bounds are passed on as bounds.

Among the test systems are HL-60(TB) leukemia; T-47D breast; LOX IMVI melanoma; SK-OV-3 ovarian; PC-3 prostate; SW-620 colon; RPMI-8226 leukemia; U251 CNS; HCT-15 colon; M14 melanoma.
Assay in all cases: NCI anticancer screen, dose series, 48 h

Consider `CCCOC1OC(CS(=O)(=O)O)C(OC(C)=O)C(OC(C)=O)C1OC(C)=O` (stereo not given), for which the TGI in the experiment on HL-60(TB) leukemia, in the experiment on T-47D breast, in the experiment with LOX IMVI melanoma, with SK-OV-3 ovarian, in the experiment on PC-3 prostate and with SW-620 colon was > 100 µM in each case. For the same compound, the TGI with RPMI-8226 leukemia, with U251 CNS, in the experiment with HCT-15 colon and in the experiment with M14 melanoma was > 100 µM throughout.

Consider `CN1C(=O)C(CCO)(C(C)(C)C)c2ccccc21` (stereo not given), for which the TGI in the experiment with HL-60(TB) leukemia, in the experiment with T-47D breast, with LOX IMVI melanoma, in the experiment with SK-OV-3 ovarian, in the experiment on PC-3 prostate and in the experiment on SW-620 colon was > 100 µM throughout. Also, the TGI in the experiment with RPMI-8226 leukemia, in the experiment with U251 CNS, in the experiment on HCT-15 colon and in the experiment with M14 melanoma was > 100 µM in each case.

As for `CCOc1ccccc1N=NC1C(=O)N(C(=O)CC(=O)Nc2ccccc2OC)N=C1C` (stereo not given), the TGI with HL-60(TB) leukemia was > 100 µM; in the experiment with T-47D breast, > 100 µM; with LOX IMVI melanoma, > 100 µM; in the experiment with SK-OV-3 ovarian, 94.3 µM; in the experiment on PC-3 prostate, > 100 µM; with SW-620 colon, > 100 µM. Moreover, the TGI in the experiment with RPMI-8226 leukemia is > 100 µM; with U251 CNS, 95.6 µM; with HCT-15 colon, 79.8 µM; in the experiment on M14 melanoma, > 100 µM.

As for `CC(=O)Nc1nc(C)c(S(=O)(=O)NC(=O)N2c3ccccc3CCc3ccccc32)s1`, the TGI in the experiment with HL-60(TB) leukemia, in the experiment with T-47D breast, in the experiment with LOX IMVI melanoma, with SK-OV-3 ovarian, in the experiment with PC-3 prostate and with SW-620 colon was > 100 µM each time. For the same compound, the TGI in the experiment on RPMI-8226 leukemia, in the experiment on U251 CNS, in the experiment on HCT-15 colon and with M14 melanoma was > 100 µM throughout.

Consider `CN1CCCC(OC(=O)c2cc3cc(CCl)ccc3oc2=O)C1` (stereo not given), for which the TGI with HL-60(TB) leukemia was 13.2 µM; in the experiment on T-47D breast, > 100 µM; in the experiment on LOX IMVI melanoma, 34.3 µM; in the experiment on SK-OV-3 ovarian it was > 100 µM; with PC-3 prostate, 41.3 µM; with SW-620 colon, 64.8 µM. Moreover, the TGI in the experiment on RPMI-8226 leukemia was 89.1 µM; in the experiment with U251 CNS, 30.1 µM; in the experiment on HCT-15 colon it was 51.9 µM; with M14 melanoma, 39.3 µM.

Consider `COc1c(-c2ccc(F)cc2)oc2cc(O)cc(O)c2c1=O`, for which the TGI in the experiment with HL-60(TB) leukemia is 70.1 µM; with T-47D breast, 56.9 µM; with LOX IMVI melanoma, 54.5 µM; with SK-OV-3 ovarian, > 100 µM; with PC-3 prostate, > 100 µM; with SW-620 colon, > 100 µM. For the same compound, the TGI is > 100 µM with RPMI-8226 leukemia, 97.5 µM with U251 CNS, 38 µM in the experiment with HCT-15 colon and > 100 µM with M14 melanoma.

`CCOC(=O)NC(OCc1ccccc1)(C(=O)OC)C(F)(F)F` (stereo not given): the TGI in the experiment on HL-60(TB) leukemia, in the experiment on T-47D breast, in the experiment with LOX IMVI melanoma, in the experiment on SK-OV-3 ovarian, in the experiment on PC-3 prostate and in the experiment with SW-620 colon was > 100 µM in each case. For the same compound, the TGI in the experiment with RPMI-8226 leukemia, in the experiment with U251 CNS, in the experiment on HCT-15 colon and in the experiment with M14 melanoma was > 100 µM in each case.

Turning to `Cc1sc2nc3n(sc4nc5sc(C)c(C)c5c(=O)n43)c(=O)c2c1C`, the TGI is > 100 µM in the experiment on HL-60(TB) leukemia; 12 µM with T-47D breast; > 100 µM with LOX IMVI melanoma; > 100 µM with SK-OV-3 ovarian; > 100 µM with PC-3 prostate; > 100 µM in the experiment with SW-620 colon. For the same compound, the TGI in the experiment on RPMI-8226 leukemia, in the experiment with U251 CNS, with HCT-15 colon and with M14 melanoma was > 100 µM throughout.

Take `CCOC(=O)c1nc2ccccc2nc1Nc1ccc(F)cc1`: the TGI was > 100 µM in the experiment on HL-60(TB) leukemia; > 86.1 µM in the experiment on T-47D breast; > 100 µM with LOX IMVI melanoma; 37.7 µM in the experiment on SK-OV-3 ovarian; > 100 µM in the experiment with PC-3 prostate; > 100 µM in the experiment on SW-620 colon. The TGI in the experiment on RPMI-8226 leukemia was > 100 µM; with U251 CNS it was 70.6 µM; in the experiment on HCT-15 colon, > 100 µM; with M14 melanoma, > 100 µM.

Turning to `COc1ccc(/C=N/N=C(\N)NO)c(OC)c1OC`, the TGI in the experiment with HL-60(TB) leukemia was 45.8 µM; in the experiment with T-47D breast, 90.2 µM; with LOX IMVI melanoma, > 100 µM; in the experiment with SK-OV-3 ovarian it was > 100 µM; in the experiment with PC-3 prostate, > 100 µM; with SW-620 colon, > 100 µM. For the same compound, the TGI in the experiment with RPMI-8226 leukemia, in the experiment on U251 CNS, with HCT-15 colon and in the experiment on M14 melanoma was > 100 µM throughout.

In the case of `COC(=O)NC(Nc1ccc(C)cc1)(C(F)(F)F)C(F)(F)F`, the TGI with HL-60(TB) leukemia, in the experiment on T-47D breast, with LOX IMVI melanoma, in the experiment on SK-OV-3 ovarian, with PC-3 prostate and with SW-620 colon was > 100 µM in each case. The TGI with RPMI-8226 leukemia, with U251 CNS, with HCT-15 colon and in the experiment on M14 melanoma was > 100 µM throughout.

As for `O=C(c1ccccc1)c1ccc2nc(-c3c(Cl)c(Cl)c(Cl)c(Cl)c3C(=O)Nc3ccco3)[nH]c2c1`, the TGI in the experiment with HL-60(TB) leukemia was 98.3 µM; with T-47D breast, > 100 µM; in the experiment on LOX IMVI melanoma it was > 100 µM; with SK-OV-3 ovarian, > 100 µM; in the experiment with PC-3 prostate it was > 100 µM; in the experiment on SW-620 colon, > 100 µM. Also, the TGI in the experiment on RPMI-8226 leukemia, in the experiment with U251 CNS, in the experiment on HCT-15 colon and in the experiment on M14 melanoma was > 100 µM in each case.

As to `Cn1c(=O)[nH]n(-c2ccc3ccccc3c2)c1=O`, the TGI in the experiment on HL-60(TB) leukemia, with T-47D breast, with LOX IMVI melanoma, in the experiment on SK-OV-3 ovarian, in the experiment with PC-3 prostate and in the experiment on SW-620 colon was > 100 µM each time. The TGI with RPMI-8226 leukemia, in the experiment with U251 CNS, with HCT-15 colon and in the experiment with M14 melanoma was > 100 µM in each case.

As to `COCCN(C(=O)c1ccccc1)C1CCC(=O)c2[nH]c3ccccc3c21` (stereo not given), the TGI in the experiment with HL-60(TB) leukemia was 58.8 µM; in the experiment with T-47D breast, 34.4 µM; with LOX IMVI melanoma, > 39.4 µM; in the experiment with SK-OV-3 ovarian, 29 µM; with PC-3 prostate, 12.8 µM; in the experiment on SW-620 colon, 23.3 µM. In addition, the TGI was determined as 58.6 µM in the experiment with RPMI-8226 leukemia, 3.99 µM in the experiment with U251 CNS, 31.9 µM in the experiment with HCT-15 colon and 20.4 µM in the experiment with M14 melanoma.

On to `Cc1ccc(C(=O)NN=C(/N=N/c2cccc(C)c2)c2ccc(N(C)C)cc2)cc1`, for which the TGI in the experiment on HL-60(TB) leukemia, in the experiment with T-47D breast, with LOX IMVI melanoma, in the experiment on SK-OV-3 ovarian, in the experiment on PC-3 prostate and in the experiment on SW-620 colon was > 100 µM in each case. Also, the TGI with RPMI-8226 leukemia, in the experiment with U251 CNS, in the experiment on HCT-15 colon and in the experiment with M14 melanoma was > 100 µM in each case.

On to `CC(C)CCCC(C)[C@H]1CC[C@H]2NCCCC[C@]12C` (stereo not given in full), for which the TGI is 5.91 µM in the experiment on HL-60(TB) leukemia; 8.93 µM in the experiment with T-47D breast; 4.23 µM in the experiment with LOX IMVI melanoma; 28.4 µM with SK-OV-3 ovarian; 10.4 µM in the experiment with PC-3 prostate; 9.84 µM with SW-620 colon. The TGI in the experiment with RPMI-8226 leukemia was found to be 4.01 µM; in the experiment on U251 CNS it was 5.88 µM; in the experiment on HCT-15 colon it was 6.91 µM; with M14 melanoma, 4.29 µM.

`O=C1c2ccccc2C2(c3ccc(Cl)cc3)N[C@@H]3CCCC[C@@H]3N12` (stereo not given in full): the TGI with HL-60(TB) leukemia, in the experiment on T-47D breast, in the experiment with LOX IMVI melanoma, in the experiment on SK-OV-3 ovarian, in the experiment with PC-3 prostate and with SW-620 colon was > 100 µM each time. Also, the TGI in the experiment on RPMI-8226 leukemia, with U251 CNS, with HCT-15 colon and with M14 melanoma was > 100 µM throughout.

For `Cc1ccc(C2(N3CCOCC3)OC(C)(C)c3cccc4cccc2c34)cc1` (stereo not given), the TGI was > 100 µM in the experiment with HL-60(TB) leukemia; 60.4 µM in the experiment with T-47D breast; 31 µM in the experiment on LOX IMVI melanoma; 31.2 µM with SK-OV-3 ovarian; 34.2 µM with PC-3 prostate; 37 µM in the experiment with SW-620 colon. The TGI was 37.9 µM in the experiment with RPMI-8226 leukemia, 30.7 µM in the experiment on U251 CNS, 40 µM in the experiment on HCT-15 colon and 32.7 µM in the experiment with M14 melanoma.

As for `C=C(C)[C@@H]1CC[C@]2(C(=O)OC3OC(COC4OC(CO)C(OC5OC(C)C(O)C(O)C5O)C(O)C4O)C(O)C(O)C3O)CC[C@]3(C)[C@H](CC[C@@H]4[C@@]5(C)CC[C@H](O)[C@@](C)(CO)[C@@H]5CC[C@]43C)[C@@H]12` (stereo not given in full), the TGI is 1.13 µM in the experiment with HL-60(TB) leukemia; > 10 µM in the experiment on T-47D breast; > 8.27 µM in the experiment with LOX IMVI melanoma; > 8.62 µM in the experiment with SK-OV-3 ovarian; > 8.45 µM with PC-3 prostate; > 10 µM in the experiment with SW-620 colon. For the same compound, the TGI is > 5.92 µM in the experiment with RPMI-8226 leukemia, > 10 µM in the experiment with U251 CNS, > 9.68 µM with HCT-15 colon and > 10 µM with M14 melanoma.

For `Nc1cc2ncnc(Nc3cccc(Br)c3)c2cn1`, the TGI in the experiment on HL-60(TB) leukemia is > 100 µM; with T-47D breast it was > 100 µM; in the experiment with LOX IMVI melanoma it was > 100 µM; with SK-OV-3 ovarian, 74.4 µM; in the experiment on PC-3 prostate, > 100 µM; in the experiment on SW-620 colon, > 100 µM. Also, the TGI in the experiment with RPMI-8226 leukemia, with U251 CNS, in the experiment with HCT-15 colon and in the experiment on M14 melanoma was > 100 µM each time.

Take `O=C1/C(=C(/Br)I)c2ccccc2-c2ccccc21`: the TGI was 0.516 µM in the experiment on HL-60(TB) leukemia; > 80.4 µM with T-47D breast; 12.2 µM in the experiment on LOX IMVI melanoma; 29.8 µM with SK-OV-3 ovarian; 23.7 µM with PC-3 prostate; 8.12 µM in the experiment on SW-620 colon. Further, the TGI in the experiment on RPMI-8226 leukemia came to 8.37 µM; in the experiment on U251 CNS it was 25.5 µM; in the experiment on HCT-15 colon it was 16.6 µM; in the experiment with M14 melanoma, 27.6 µM.

Turning to `O=P1(N(CCCl)CCCl)NCCCO1` (stereo not given), the TGI with HL-60(TB) leukemia is 220 µM; with T-47D breast, > 250 µM; in the experiment with LOX IMVI melanoma, > 250 µM; with SK-OV-3 ovarian it was > 250 µM; in the experiment on PC-3 prostate, > 250 µM; in the experiment on SW-620 colon it was > 250 µM. Besides, the TGI in the experiment on RPMI-8226 leukemia, in the experiment on U251 CNS, with HCT-15 colon and with M14 melanoma was > 250 µM throughout.
